Values of other authors as cited in US20250205146A1, “GRAPHENE-BASED DRUG DELIVERY DEVICE FOR MUCOSAL AND TRANSMUCOSAL ADMINISTRATION” (SISSA - SCUOLA INTERNAZIONALE SUPERIORE DI STUDI AVANZATI, priority 2022, published 2025).

Details: cyclic voltammetry, depending on the electrochemical system used

Cn1c(=O)c2c(ncn2C)n(C)c1=O [caffeine]
irreversible oxidation peak potential: over 1.4 V
